Source: PubChem BioAssay (NCI)
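Growth conditions: 96-well plates. Treatment: test compound, 48 hours, 5 concentrations. Analysis: linear interpolation between bracketing concentrations; unreached endpoints set to highest concentration. GI50: concentration for 50% inhibition of growth. TGI marks complete inhibition of growth.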

Experiments:
Test in all cases: inhibition of tumour cell growth, NCI panel, 48 h
SN12C renal = test system: SN12C renal
HL-60(TB) leukemia = test system: HL-60(TB) leukemia
OVCAR-3 ovarian = test system: OVCAR-3 ovarian
UO-31 renal = test system: UO-31 renal
RPMI-8226 leukemia = test system: RPMI-8226 leukemia
CAKI-1 renal = test system: CAKI-1 renal
MOLT-4 leukemia = test system: MOLT-4 leukemia
NCI-H23 lung = test system: NCI-H23 lung
HS 578T breast = test system: HS 578T breast
T-47D breast = test system: T-47D breast

SMILES	TGI (SN12C renal) [µM]	TGI (HL-60(TB) leukemia) [µM]	TGI (OVCAR-3 ovarian) [µM]	TGI (UO-31 renal) [µM]	TGI (RPMI-8226 leukemia) [µM]	TGI (CAKI-1 renal) [µM]	TGI (MOLT-4 leukemia) [µM]	TGI (NCI-H23 lung) [µM]	TGI (HS 578T breast) [µM]	GI50 (SN12C renal) [µM]	GI50 (HL-60(TB) leukemia) [µM]	GI50 (HS 578T breast) [µM]	GI50 (OVCAR-3 ovarian) [µM]	GI50 (UO-31 renal) [µM]	GI50 (RPMI-8226 leukemia) [µM]	GI50 (CAKI-1 renal) [µM]	GI50 (MOLT-4 leukemia) [µM]	GI50 (NCI-H23 lung) [µM]	GI50 (T-47D breast) [µM]	TGI (T-47D breast) [µM]
CC1=C(C(=O)Nc2cc(=O)n(C)c(=O)n2C)C(c2cccc([N+](=O)[O-])c2)C(C(=O)Nc2cc(=O)n(C)c(=O)n2C)=C(C)N1	> 100	> 100	> 100	> 100	> 100	> 100	> 100	> 100												
CCN(CC)CCCNC(=O)C1COc2cc(-c3cc(=O)c4ccccc4o3)ccc2O1 (stereo not given)	> 100	> 100	> 100	> 100	> 100	> 100	> 100	> 100												
C[C@]12CCC(=O)C(O)=C1CC[C@@H]1C2CC[C@]2(C)NC(=O)CCC12 (stereo not given in full)	> 100	> 100	> 100	> 100	> 100	> 100	> 100	> 100												
CNC/C(Cl)=N/S(=O)(=O)c1ccc(C)cc1	28.1		25.5	36.6	33.5	26.2		26.2	> 100											
COc1ccc(-c2cc(=O)c3ccccc3o2)cc1N	> 100	47.9	> 100	> 100	> 100	> 100	> 100	> 100												
CC(=Nc1ccccc1)C1=C(O)C(Cc2ccc(O)cc2)NC1=O (stereo not given)	> 100	0.176	0.072	> 100	> 100	> 100	> 100	> 100		0.991	0.0376	0.0771	0.0258	0.321	0.169	0.0635	0.371	0.139		
CC(=O)OC1CCn2nnc(CO)c21 (stereo not given)	> 100		> 100	> 100	> 100	> 100	> 100	> 100												
COc1cccc(/C=C/[N+](=O)[O-])c1	37.2	5.77	4.08	3.4	4.54		11.9	12.6	55.5	15.2	2.31	15.8	1.96	1.68	1.78		3.06	3.21	2.51	9.6
O=C(c1ccccc1)c1c(-c2ccccc2)sc2nc3ccccc3nc12	> 100	> 100	> 100		> 100	> 100	> 100	> 100												
O=c1cc(N2CCN(CCCCCOc3cc(O)c4c(=O)cc(-c5ccccc5)oc4c3)CC2)c2ccccc2o1	> 100	> 100	> 100	> 100	> 100	> 100		0.475	> 100	45.4	17.5	> 100	> 100	50.8	12.4	> 100		0.218	> 100	> 100
COc1ccc(-c2cc(-c3cccn3C)c(C#N)c(=O)[nH]2)cc1OC	> 100		> 100	> 100	> 100	> 100	> 100	> 100	> 100	> 100		> 100	> 100	85.1	> 100	> 100	22.7	> 100	34.7	> 100
Cc1cccc(C)c1CO	> 100	> 100	> 100	> 100	> 100	> 100	> 100	> 100												
CCOC(=O)Cc1ccc2c(c1O)C(=O)c1c(ccc(CC(=O)OCC)c1O)C2=O	> 100	> 100	> 100	> 100	> 100		> 100	> 100												
C=C1C(=O)O[C@H]2[C@H]1CC/C(COC(=O)c1cc3ccccc3o1)=C\CC[C@@]1(C)O[C@@H]21	4.12	3.68	1.72	2.79	3.44		6.06	4.75	10.9	1.78	1.22	2.91	0.485	1.46	0.715		1.77	1.98	1.35	3.32
Cc1cc(-c2nc3sccn3c2/C=N/N=C(N)N)c(C)s1	30.9	> 100	26	36.9	33.2		60.7	33.7		15.7	15.6		13.2	21.1	13.3		17.6	17.7	17.5	32.8
O=C(O)Cc1cc(=O)[nH]c2c1/C(=N/O)CCC2	> 100	> 100	> 100	> 100	> 100		> 100	> 100												
COc1ccc(C(=O)C(C(=O)CC(=O)Nc2cccc(C(F)(F)F)c2)c2ccc(OC)cc2)cc1 (stereo not given)	> 100	> 100	> 100	> 100	> 100	> 100	> 100	> 100												
c1ccc2c(NCCCCCCNc3c4ccccc4nc4ccccc34)c3ccccc3nc2c1	4.25		2.21	23.5	0.25	7.87	0.212	2.33	3.05											12.5
CN1CC(=O)N(C)c2ncn(Cc3ccccc3)c2C1=O	> 100	> 100	> 100	> 100	> 100		> 100	> 100												
COC(=O)C1=C(O)c2cc(-c3ccccc3)c(-c3ccccc3)c(C#N)c2NC(=O)C1	> 100		> 100	> 100		85.8	> 100	> 100												
